Reference: patent US20110183978A1, “Phenylpyri(mi)dinylazoles” (Bayer CropScience AG, priority 2009, published 2011)
Like-named read-outs stand apart in the source and are kept apart here.

What was measured:
[1] = test system: Botrytis cinerea; test: Example B: in vivo test on Botrytis cinerea (grey mould on cucumbers); conditions: cucumber plants sprayed 24 hours before inoculation, scored after 5-7 days, read-out: % Wirkungsgrad
Method: In Vivo Test on Botrytis Cinerea (Grey Mould on Cucumbers) An aqueous suspension of the active substance was prepared by homogenization of a mixture of acetone/Tween/dimethyl sulphoxide and subsequent dilution with water to the desired concentration. Cucumber plants (variety: Vert petit de Paris) are sown in cultivation dishes on a peat-pozzolanic earth substrate (50/50) at 18-20° C. and sprayed at the cotyledon stage Z11 with the aqueous suspension described above. As a control, plants are sprayed with an aqueous solution with no active substance. […] The spores are derived from a 15 day-old culture which are suspended in the following nutrient solution: • 20 g/l gelatine • 50 g/l D-fructose • 2 g/l NH4NO3 • 1 g/l KH2PO4 The inoculated cucumber plants are kept for 5-7 days in a climatic chamber at […] After 5-7 days they are scored in comparison with the control plants.

[2] = test system: Sphaerotheca fuliginea; test: Example D: in vivo test on Sphaerotheca fuliginea (powdery mildew on cucumber); conditions: Podosphaera fuliginea, 288 h, cucumber plants sprayed 24 hours before inoculation, scored after 12 days, read-out: % Wirkungsgrad
Method: In Vivo Test on Sphaerotheca Fuliginea (Powdery Mildew on Cucumber) An aqueous suspension of the active substance was prepared by homogenization of a mixture of acetone/Tween/dimethyl sulphoxide and subsequent dilution with water to the desired concentration. Cucumber plants (variety: Vert petit de Paris) are sown in cultivation dishes on a peat-pozzolanic earth substrate (50/50) at 20/23° C. and at the cotyledon stage Z10 sprayed with the aqueous suspension described above. As a control, plants are sprayed with an aqueous solution with no active substance. After 24 hours the plants are inoculated by spraying with an aqueous suspension of Sphaerotheca fuliginea spores (100,000 spores per ml). The spores are derived from a contaminated plant. The inoculated cucumber plants are incubated at ca. 20/25° C. at a relative atmospheric humidity of 60/70%. After 12 days they are scored in comparison with the control plants.

[3] = test system: Mycosphaerella graminicola; test: Example G: in vivo test on Mycosphaerella graminicola (wheat leaf blotch disease); conditions: Zymoseptoria tritici, wheat plants sprayed 24 hours before inoculation, scored after 21 to 28 days, read-out: % Wirkungsgrad
Method: In Vivo Test on Mycosphaerella Graminicola (Wheat Leaf Blotch Disease) An aqueous suspension of the active substance was prepared by homogenization of a mixture of acetone/Tween/dimethyl sulphoxide and subsequent dilution with water to the desired concentration. Wheat plants (variety: Scipion) are sown in cultivation dishes on a peat-pozzolanic earth substrate (50/50) at 12° C. and sprayed at the first-leaf stage (10 cm size) with the aqueous suspension described above. As a control, plants are sprayed with an aqueous solution with no active substance. After 24 hours the plants are inoculated by spraying with an aqueous suspension of Mycosphaerella graminicola spores (500,000 spores per ml). The spores are derived from a 7 day-old culture. […] After 21 to 28 days they are scored in comparison with the control plants.

[4] = physchem
[5] = test system: Fusarium proliferatum; test: Example I: production of fumonisin FB1 by Fusarium proliferatum (microtitre plates); format: cell-based; conditions: 120 h
[6] = test system: Fusarium graminearum; test: microbe, parasite or virus in culture; format: cell-based
[7] = test system: Sphaerotheca fuliginea; test: Example L: in vivo test on Sphaerotheca fuliginea (powdery mildew on cucumber/protective); conditions: Podosphaera fuliginea, 168 h, cucumber, protective, assessment 7 days after inoculation, read-out: % Wirkungsgrad
Procedure, shortened: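 Young cucumber plants sprayed at stated dosage with compound in DMF/alkylaryl polyglycol ether emulsifier diluted in water; inoculated with S. fuliginea spores one day later. Kept in greenhouse at 70% relative humidity, 23° C; protective activity assessed 7 days after inoculation.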

[8] = test system: Alternaria solani; test: Example M: in vivo test on Alternaria solani (leaf blotch disease/tomato/protective); conditions: 168 h, tomato, protective, 500 ppm active substance, assessed 7 days after inoculation, read-out: % Wirkungsgrad (activity level)
Procedure, shortened: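 Protective test: young tomato plants sprayed with active substance (in DMF with alkylaryl polyglycol ether emulsifier, diluted in water) at the stated dosage, then inoculated with Alternaria solani. Disease assessed 7 days after inoculation.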

[9] = test system: Venturia inaequalis; test: Example O: in vivo test on Venturia inaequalis (apple scab/protective); conditions: 240 h, protective, assessment 10 days after inoculation, read-out: % Wirkungsgrad
Procedure, shortened: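 Protective test: active substance mixed with solvent and alkylaryl polyglycol ether emulsifier, diluted with water, and sprayed on young plants at the stated dosage before Venturia inaequalis inoculation. Scab assessed 10 days after inoculation.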

[10] = test system: Leptosphaeria nodorum; test: Example Q: in vivo test on Leptosphaeria nodorum (glume blotch in wheat/protective); conditions: Parastagonospora nodorum, 192 h, wheat, protective, assessment 8 days after inoculation, read-out: % Wirkungsgrad
Method: (§1) Solvent: 49 parts by weight N,N-dimethylacetamide Emulsifier: 1 part by weight alkylaryl polyglycol ethers For the preparation of a suitable active substance preparation, 1 part by weight of active substance is mixed with the stated quantities of solvent and emulsifier and the concentrate is diluted to the desired concentration with water. For the testing for protective activity, young plants are sprayed with the active substance preparation at the stated application dosage. After drying of the spray coating, the plants are sprayed with spores with a spore suspension of Leptosphaeria nodorum. […] 8 days after the inoculation, the assessment takes place.

[11] = test system: Septoria tritici; test: Example R: in vivo test on Septoria tritici (leaf blotch in wheat/protective); conditions: Zymoseptoria tritici, 504 h, wheat, protective, 1000 ppm active substance, assessed 21 days after inoculation, read-out: % Wirkungsgrad (activity level)
Method: as §1, with “with” for “with spores with”, “Septoria tritici.” for “Leptosphaeria nodorum.”, “21” for “8”

[12] = test system: Rhynchosporium secalis; test: Example S: in vivo test on Rhynchosporium secalis (leaf scald in barley/protective); conditions: 336 h, barley, protective, 1000 ppm active substance, assessed 14 days after inoculation, read-out: % Wirkungsgrad (activity level)
Method: as §1, with “Rhynchosporium secalis.” for “Leptosphaeria nodorum.”, “14” for “8”

[13] = test system: Fusarium nivale (var. majus); test: whole plant or invertebrate; format: in vivo; conditions: Microdochium nivale, in Triticum aestivum, 120 h, read-out: % Wirkungsgrad (activity level)
[14] = test system: Fusarium graminearum; test: whole plant or invertebrate; format: in vivo; conditions: in Hordeum vulgare, 120 h, read-out: % Wirkungsgrad (activity level)
[15] = test system: Botrytis cinerea; test: Example P: in vivo test on Botrytis cinerea (gray mould on bean/protective); conditions: 48 h, bean, protective, 250 ppm active substance, assessed 2 days after inoculation, read-out: % Wirkungsgrad (activity level)
Procedure, shortened: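 Protective test: young bean plants sprayed with the active substance preparation (emulsifier-based concentrate diluted in water) at the stated dosage. Once dry, each leaf received 2 agar pieces bearing Botrytis cinerea. Infection blotch size assessed 2 days after inoculation.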

[16] = test system: Plasmopara viticola; test: Example N: in vivo test on Plasmopara viticola (downy mildew, vine/protective); conditions: 144 h, vine, protective, assessment 6 days after inoculation, read-out: % Wirkungsgrad
Method: Emulsifier: 1 part by weight alkylaryl polyglycol ethers For the preparation of a suitable active substance preparation, 1 part by weight of active substance is mixed with the stated quantities of solvent and emulsifier and the concentrate is diluted to the desired concentration with water. For the testing for protective activity, young plants are sprayed with the active substance preparation at the stated application dosage. […] The plants are then moistened and placed in an incubation cabin for 1 day. 6 days after the inoculation, the assessment takes place.

[17] = LogPA (logP of the stated pure compound or, in a mixture, of the main isomer, 1-substituted 3-aryl-1H-pyrazole)
[18] = Fusarium proliferatum growth, OD 620, 5 days, read-out: % Inhibition des Pilzwachstums bei 50 μM
[19] = Fusarium proliferatum, 5 days at 20° C., HPLC-MS/MS, read-out: % Inhibition der FB1 produktion bei 50 μM
[20] = 72 h, read-out: % Inhibition des Pilzwachstums bei 50 μM
[21] = 168 h, read-out: % Inhibition der DON/AcDON produktion bei 50 μM

## CC(C)Cn1cc(-c2ccncc2)c(-c2c(F)cccc2F)n1 [Compound 13]
[1]
  pest or weed control at 500 ppm: 100%
[2]
  pest or weed control at 500 ppm: 90%
[3]
  pest or weed control at 500 ppm: 95%
[4]; [17]
  chromatographic logP: 1.62

## CC(C)n1cc(-c2ccncc2)c(-c2c(F)cccc2F)n1 [Compound 14]
[1]
  pest or weed control at 500 ppm: 100%
[2]
  pest or weed control at 500 ppm: 80%
[3]
  pest or weed control at 500 ppm: 88%
[4]; [17]
  chromatographic logP: 1.4

## Fc1cccc(F)c1-c1c(-c2ccncc2)cnn1C1CCCC1 [Compound 17]
[1]
  pest or weed control at 500 ppm: 83%
[2]
  pest or weed control at 500 ppm: 80%
[3]
  pest or weed control at 500 ppm: 88%
[4]; [17]
  chromatographic logP: 1.74

## CCC(=O)Nc1cc(-c2cn(C(C)CC)nc2-c2ccc(F)cc2)ccn1 (stereo not shown) [Compound 164]
[5]; [18]
  inhibition at 50 µM: 97%
[5]; [19]
  inhibition at 50 µM: 100%
[6]; [20]
  inhibition at 50 µM: 100%
[6]; [21]
  inhibition at 50 µM: 99%
[7]
  pest or weed control at 500 ppm: 100%
[8]
  pest or weed control at 500 ppm: 95%
[9]
  pest or weed control at 100 ppm: 97%
[10]
  pest or weed control at 1000 ppm: 93%
[11]
  pest or weed control at 1000 ppm: 100%
[12]
  pest or weed control at 1000 ppm: 100%
[13]
  pest or weed control at 1000 ppm: 100%
[14]
  pest or weed control at 1000 ppm: 100%
[4]; [17]
  chromatographic logP: 2.46

## CC(C)Cn1cc(-c2ccnc(N)n2)c(-c2ccc(F)cc2)n1 [Compound 184]
[7]
  pest or weed control at 500 ppm: 95%
[8]
  pest or weed control at 500 ppm: 95%
[9]
  pest or weed control at 100 ppm: 92%
[15]
  pest or weed control at 250 ppm: 100%
[10]
  pest or weed control at 1000 ppm: 88%
[11]
  pest or weed control at 1000 ppm: 100%
[12]
  pest or weed control at 1000 ppm: 71%
[13]
  pest or weed control at 1000 ppm: 100%
[14]
  pest or weed control at 1000 ppm: 100%
[4]; LogPA
  chromatographic logP: 1.81

## CC(C)n1cc(-c2ccnc(NC(=O)[C@H](C)O)c2)c(-c2ccc(F)cc2)n1 [Compound 192]
[7]
  pest or weed control at 500 ppm: 85%
[8]
  pest or weed control at 500 ppm: 100%
[16]
  pest or weed control at 100 ppm: 94%
[9]
  pest or weed control at 100 ppm: 95%
[15]
  pest or weed control at 250 ppm: 100%
[10]
  pest or weed control at 1000 ppm: 86%
[11]
  pest or weed control at 1000 ppm: 100%
[12]
  pest or weed control at 1000 ppm: 71%
[13]
  pest or weed control at 1000 ppm: 100%
[14]
  pest or weed control at 1000 ppm: 100%
[4]; LogPA
  chromatographic logP: 2.14

## CCC(=O)Nc1cc(-c2cn(CC3CC3)nc2-c2ccc(F)cc2)ccn1 [Compound 214]
[5]; [18]
  inhibition at 50 µM: 96%
[5]; [19]
  inhibition at 50 µM: 100%
[6]; [20]
  inhibition at 50 µM: 100%
[6]; [21]
  inhibition at 50 µM: 93%
[7]
  pest or weed control at 500 ppm: 100%
[8]
  pest or weed control at 500 ppm: 95%
[16]
  pest or weed control at 100 ppm: 88%
[9]
  pest or weed control at 100 ppm: 88%
[15]
  pest or weed control at 250 ppm: 100%
[10]
  pest or weed control at 1000 ppm: 71%
[11]
  pest or weed control at 1000 ppm: 100%
[12]
  pest or weed control at 1000 ppm: 100%
[13]
  pest or weed control at 1000 ppm: 100%
[14]
  pest or weed control at 1000 ppm: 100%
[4]; LogPA
  chromatographic logP: 2.2

## CCC(=O)Nc1cc(-c2cn(CC(F)F)nc2-c2ccc(F)cc2)ccn1 [Compound 215]
[5]; [18]
  inhibition at 50 µM: 94%
[5]; [19]
  inhibition at 50 µM: 100%
[7]
  pest or weed control at 500 ppm: 100%
[8]
  pest or weed control at 500 ppm: 94%
[9]
  pest or weed control at 100 ppm: 96%
[15]
  pest or weed control at 250 ppm: 98%
[10]
  pest or weed control at 1000 ppm: 71%
[11]
  pest or weed control at 1000 ppm: 94%
[12]
  pest or weed control at 1000 ppm: 90%
[13]
  pest or weed control at 1000 ppm: 100%
[14]
  pest or weed control at 1000 ppm: 100%
[4]; LogPA
  chromatographic logP: 1.99

## CC(C)C(=O)Nc1cc(-c2cn(CC(F)F)nc2-c2ccc(F)cc2)ccn1 [Compound 218]
[5]; [18]
  inhibition at 50 µM: 79%
[5]; [19]
  inhibition at 50 µM: 100%
[7]
  pest or weed control at 500 ppm: 100%
[8]
  pest or weed control at 500 ppm: 95%
[9]
  pest or weed control at 100 ppm: 95%
[15]
  pest or weed control at 250 ppm: 98%
[10]
  pest or weed control at 1000 ppm: 93%
[11]
  pest or weed control at 1000 ppm: 100%
[12]
  pest or weed control at 1000 ppm: 100%
[13]
  pest or weed control at 1000 ppm: 92%
[14]
  pest or weed control at 1000 ppm: 100%
[4]; LogPA
  chromatographic logP: 2.29

## CC(C)C(=O)Nc1cc(-c2cn(CC3CC3)nc2-c2ccc(F)cc2)ccn1 [Compound 225]
[5]; [18]
  inhibition at 50 µM: 93%
[5]; [19]
  inhibition at 50 µM: 100%
[6]; [20]
  inhibition at 50 µM: 92%
[6]; [21]
  inhibition at 50 µM: 89%
[7]
  pest or weed control at 500 ppm: 100%
[8]
  pest or weed control at 500 ppm: 95%
[16]
  pest or weed control at 100 ppm: 90%
[9]
  pest or weed control at 100 ppm: 96%
[15]
  pest or weed control at 250 ppm: 96%
[10]
  pest or weed control at 1000 ppm: 86%
[11]
  pest or weed control at 1000 ppm: 100%
[12]
  pest or weed control at 1000 ppm: 90%
[13]
  pest or weed control at 1000 ppm: 100%
[14]
  pest or weed control at 1000 ppm: 100%
[4]; LogPA
  chromatographic logP: 2.54
